Test results taken from ChEMBL document CHEMBL2406981, “Novel pyrazoline amidoxime and their 1,2,4-oxadiazole analogues: synthesis and pharmacological screening” (Bioorg Med Chem Lett, 2013).
In brackets after ≈: the same amount, converted by molar mass.

Columns and labels:
Type in all cases: functional
Staphylococcus aureus [1] = experiment: Antimicrobial activity against Staphylococcus aureus MTCC 96 at 100 ug/ml after 24 hrs by agar disc diffusion method; details: MTCC 96, 24 h, read-out: DIZ
Aspergillus niger [2] = experiment: Antimicrobial activity against Aspergillus niger MTCC 281 at 100 ug/ml after 24 hrs by agar disc diffusion method; details: MTCC 281, 24 h, read-out: DIZ
Bacillus cereus [3] = experiment: Antimicrobial activity against Bacillus cereus MTCC 8372 at 50 ug/ml after 24 hrs by agar disc diffusion method; details: MTCC 8372, 24 h, read-out: DIZ
Aspergillus niger [4] = experiment: Antimicrobial activity against Aspergillus niger MTCC 281
Escherichia coli [5] = experiment: Antimicrobial activity against Escherichia coli MTCC 724 at 100 ug/ml after 24 hrs by agar disc diffusion method; details: MTCC 724, 24 h, read-out: DIZ
[6] = Antiinflammatory activity against heat-induced albumin denaturation at […] preincubated for 15 mins before heat induction by UV-vis spectrophotometer analysis
Aspergillus flavus [7] = experiment: Antimicrobial activity against Aspergillus flavus MTCC 873
[8] = test system: Radical scavenging activity; experiment: Antioxidant activity assessed as DPPH free radical scavenging activity at 10 ug/ml after 20 mins
[9] = Antioxidant activity assessed as reducing power of ferric ion at 50 ug/ml after 20 mins; set-up: scale not given: the % may be the effect or the level left
[10] = test system: Radical scavenging activity; experiment: Antioxidant activity assessed as DPPH free radical scavenging activity at 100 ug/ml after 20 mins
Bacillus cereus [11] = experiment: Antimicrobial activity against Bacillus cereus MTCC 8372 at 100 ug/ml after 24 hrs by agar disc diffusion method; details: MTCC 8372, 24 h, read-out: DIZ
Klebsiella pneumoniae [12] = experiment: Antimicrobial activity against Klebsiella pneumoniae MTCC 3384
Klebsiella pneumoniae [13] = experiment: Antimicrobial activity against Klebsiella pneumoniae MTCC 3384 at 100 ug/ml after 24 hrs by agar disc diffusion method; details: MTCC 3384, 24 h, read-out: DIZ
Shigella flexneri [14] = experiment: Antimicrobial activity against Shigella flexneri MTCC 1457 at 100 ug/ml after 24 hrs by agar disc diffusion method; details: MTCC 1457, 24 h, read-out: DIZ
[15] = test system: Radical scavenging activity; experiment: Antioxidant activity assessed as DPPH free radical scavenging activity at 50 ug/ml after 20 mins
Bacillus cereus [16] = experiment: Antimicrobial activity against Bacillus cereus MTCC 8372
Aspergillus flavus [17] = experiment: Antimicrobial activity against Aspergillus flavus MTCC 873 at 50 ug/ml after 24 hrs by agar disc diffusion method; details: MTCC 873, 24 h, read-out: DIZ
Staphylococcus aureus [18] = experiment: Antimicrobial activity against Staphylococcus aureus MTCC 96 at 50 ug/ml after 24 hrs by agar disc diffusion method; details: MTCC 96, 24 h, read-out: DIZ
Staphylococcus aureus [19] = experiment: Antimicrobial activity against Staphylococcus aureus MTCC 96
Escherichia coli [20] = experiment: Antimicrobial activity against Escherichia coli MTCC 724 at 50 ug/ml after 24 hrs by agar disc diffusion method; details: MTCC 724, 24 h, read-out: DIZ
Shigella flexneri [21] = experiment: Antimicrobial activity against Shigella flexneri MTCC 1457 at 50 ug/ml after 24 hrs by agar disc diffusion method; details: MTCC 1457, 24 h, read-out: DIZ
Aspergillus flavus [22] = experiment: Antimicrobial activity against Aspergillus flavus MTCC 873 at 100 ug/ml after 24 hrs by agar disc diffusion method; details: MTCC 873, 24 h, read-out: DIZ
[23] = Antioxidant activity assessed as reducing power of ferric ion at 100 ug/ml after 20 mins; set-up: scale not given: the % may be the effect or the level left
[24] = Antioxidant activity against ferric chloride-induced lipid peroxidation using egg lecithin at 10 ug/ml after 1 hr
[25] = Antioxidant activity assessed as reducing power of ferric ion at 10 ug/ml after 20 mins; set-up: scale not given: the % may be the effect or the level left
Aspergillus niger [26] = experiment: Antimicrobial activity against Aspergillus niger MTCC 281 at 50 ug/ml after 24 hrs by agar disc diffusion method; details: MTCC 281, 24 h, read-out: DIZ
[27] = Antioxidant activity against ferric chloride-induced lipid peroxidation using egg lecithin at 100 ug/ml after 1 hr
Shigella flexneri [28] = experiment: Antimicrobial activity against Shigella flexneri MTCC 1457
Klebsiella pneumoniae [29] = experiment: Antimicrobial activity against Klebsiella pneumoniae MTCC 3384 at 50 ug/ml after 24 hrs by agar disc diffusion method; details: MTCC 3384, 24 h, read-out: DIZ
[30] = Antioxidant activity against ferric chloride-induced lipid peroxidation using egg lecithin at 50 ug/ml after 1 hr
Escherichia coli [31] = experiment: Antimicrobial activity against Escherichia coli MTCC 724

SMILES	zone of inhibition at 100 µg/mL (Staphylococcus aureus [1]) [mm]	zone of inhibition at 100 µg/mL (Aspergillus niger [2]) [mm]	zone of inhibition at 50 µg/mL (Bacillus cereus [3]) [mm]	MIC (Aspergillus niger [4]) [µg/mL]	zone of inhibition at 100 µg/mL (Escherichia coli [5]) [mm]	inhibition [6] [%]	MIC (Aspergillus flavus [7]) [µg/mL]	Activity [8] [%]	Activity [9] [%]	Activity [10] [%]	zone of inhibition at 100 µg/mL (Bacillus cereus [11]) [mm]	MIC (Klebsiella pneumoniae [12]) [µg/mL]	zone of inhibition at 100 µg/mL (Klebsiella pneumoniae [13]) [mm]	zone of inhibition at 100 µg/mL (Shigella flexneri [14]) [mm]	Activity [15] [%]	MIC (Bacillus cereus [16]) [µg/mL]	zone of inhibition at 50 µg/mL (Aspergillus flavus [17]) [mm]	zone of inhibition at 50 µg/mL (Staphylococcus aureus [18]) [mm]	MIC (Staphylococcus aureus [19]) [µg/mL]	zone of inhibition at 50 µg/mL (Escherichia coli [20]) [mm]	other results
Clc1ccc(C2=NN(c3ccccc3)C(c3noc(-c4ccc(Cl)cc4)n3)C2)cc1 (configuration not stated)	12	26	6	5 (≈ 11.5 µM)	10	78.4	10 (≈ 23 µM)	29	32	82	12	25 (≈ 57.4 µM)	10	12	53	25 (≈ 57.4 µM)	15	6	20 (≈ 45.9 µM)	8	zone of inhibition at 50 µg/mL (Shigella flexneri [21]): 8 mm; zone of inhibition at 100 µg/mL (Aspergillus flavus [22]): 25 mm; Activity [23]: 86%; inhibition [24]: 34%; Activity [25]: 16%; zone of inhibition at 50 µg/mL (Aspergillus niger [26]): 20 mm; inhibition [27]: 83%; MIC (Shigella flexneri [28]): 20 µg/mL (≈ 45.9 µM); zone of inhibition at 50 µg/mL (Klebsiella pneumoniae [29]): 6 mm; inhibition [30]: 58%; MIC (Escherichia coli [31]): 20 µg/mL (≈ 45.9 µM)
COc1ccccc1-c1nc(C2CC(c3ccc(Cl)cc3)=NN2c2ccccc2)no1 (configuration not stated)	10	20	4	15 (≈ 34.8 µM)	8	56.8	15 (≈ 34.8 µM)	24	23	64	8	25 (≈ 58 µM)	8	8	30	35 (≈ 81.2 µM)	9	5	30 (≈ 69.6 µM)	4	zone of inhibition at 50 µg/mL (Shigella flexneri [21]): 6 mm; zone of inhibition at 100 µg/mL (Aspergillus flavus [22]): 10 mm; Activity [23]: 68%; inhibition [24]: 21%; Activity [25]: 12%; zone of inhibition at 50 µg/mL (Aspergillus niger [26]): 10 mm; inhibition [27]: 67%; MIC (Shigella flexneri [28]): 25 µg/mL (≈ 58 µM); zone of inhibition at 50 µg/mL (Klebsiella pneumoniae [29]): 6 mm; inhibition [30]: 38%; MIC (Escherichia coli [31]): 35 µg/mL (≈ 81.2 µM)
COc1ccc(-c2nc(C3CC(c4ccccc4)=NN3c3ccccc3)no2)cc1OC (configuration not stated)	12	18	8	10 (≈ 23.4 µM)	12	27.1	10 (≈ 23.4 µM)	26	29	66	14	20 (≈ 46.9 µM)	14	10	56	20 (≈ 46.9 µM)	10	8	20 (≈ 46.9 µM)	8	zone of inhibition at 50 µg/mL (Shigella flexneri [21]): 7 mm; zone of inhibition at 100 µg/mL (Aspergillus flavus [22]): 14 mm; Activity [23]: 68%; inhibition [24]: 14%; Activity [25]: 12%; zone of inhibition at 50 µg/mL (Aspergillus niger [26]): 12 mm; inhibition [27]: 71%; MIC (Shigella flexneri [28]): 25 µg/mL (≈ 58.6 µM); zone of inhibition at 50 µg/mL (Klebsiella pneumoniae [29]): 8 mm; inhibition [30]: 52%; MIC (Escherichia coli [31]): 20 µg/mL (≈ 46.9 µM)
O=C(N[C@H](CO)[C@H](O)c1ccc([N+](=O)[O-])cc1)C(Cl)Cl [CHLORAMPHENICOL]	16		10		18						18	10 (≈ 30.9 µM)	20	24		10 (≈ 30.9 µM)		9	10 (≈ 30.9 µM)	10	zone of inhibition at 50 µg/mL (Shigella flexneri [21]): 10 mm; MIC (Shigella flexneri [28]): 10 µg/mL (≈ 30.9 µM); zone of inhibition at 50 µg/mL (Klebsiella pneumoniae [29]): 12 mm; MIC (Escherichia coli [31]): 10 µg/mL (≈ 30.9 µM)
c1ccc(-c2cc(-c3noc(-c4ccccc4)n3)n(-c3ccccc3)n2)cc1	6	18	5	20 (≈ 54.9 µM)	6	37	15 (≈ 41.2 µM)	18	14	39	8	50 (≈ 137 µM)	6	9	28	35 (≈ 96 µM)	10	3	55 (≈ 151 µM)	4	zone of inhibition at 50 µg/mL (Shigella flexneri [21]): 3 mm; zone of inhibition at 100 µg/mL (Aspergillus flavus [22]): 10 mm; Activity [23]: 65%; inhibition [24]: 26%; Activity [25]: 10%; zone of inhibition at 50 µg/mL (Aspergillus niger [26]): 9 mm; inhibition [27]: 67%; MIC (Shigella flexneri [28]): 55 µg/mL (≈ 151 µM); zone of inhibition at 50 µg/mL (Klebsiella pneumoniae [29]): 3 mm; inhibition [30]: 40%; MIC (Escherichia coli [31]): 40 µg/mL (≈ 110 µM)
O=C(O)Cc1ccccc1Nc1c(Cl)cccc1Cl						84.4															
OC(Cn1cncn1)(Cn1cncn1)c1ccc(F)cc1F [FLUCONAZOLE]		30		5 (≈ 16.3 µM)			5 (≈ 16.3 µM)										16				zone of inhibition at 100 µg/mL (Aspergillus flavus [22]): 28 mm; zone of inhibition at 50 µg/mL (Aspergillus niger [26]): 20 mm
O=C1O[C@H]([C@@H](O)CO)C(O)=C1O								32	32	94					57						Activity [23]: 82%; Activity [25]: 14%
